Numbers after ± are expanded uncertainties.
Test: xn = mol fraction of the nth substance listed
Conditions: Vibrating tube method

[Ar] [argon] + O=C=O
mass density [kg/m3]
Conditions	x2 = 0.9276	x2 = 0.9605
273.15 K, 1000 kPa, Gas	–	22.5 ± 0.2
273.15 K, 1001 kPa, Gas	21.2 ± 0.3	–
273.15 K, 2000 kPa, Gas	–	46.1 ± 0.3
273.15 K, 2001 kPa, Gas	44.2 ± 0.4	–
273.15 K, 3000 kPa, Gas	–	75.5 ± 0.4
273.15 K, 3001 kPa, Gas	72.9 ± 0.6	–
273.15 K, 3600 kPa, Gas	–	106.3 ± 0.6
273.15 K, 3800 kPa, Gas	104.5 ± 0.8	–
273.15 K, 4901 kPa, Liquid	–	893.5 ± 3.8
273.15 K, 5001 kPa, Liquid	–	894.8 ± 3.8
273.15 K, 5900 kPa, Liquid	881.4 ± 6.5	–
273.15 K, 6000 kPa, Liquid	880.2 ± 6.5	–
273.15 K, 6001 kPa, Liquid	–	905.7 ± 3.8
273.15 K, 7000 kPa, Liquid	–	915.5 ± 3.8
273.15 K, 7001 kPa, Liquid	886.5 ± 6.5	–
273.15 K, 8001 kPa, Liquid	898 ± 6.6	924 ± 3.8
273.15 K, 9001 kPa, Liquid	907.8 ± 6.6	–
273.15 K, 9002 kPa, Liquid	–	932.1 ± 3.9
273.15 K, 10001 kPa, Liquid	917.3 ± 6.7	–
273.15 K, 10002 kPa, Liquid	–	939.5 ± 3.9
273.15 K, 11001 kPa, Liquid	925.5 ± 6.8	–
273.15 K, 11002 kPa, Liquid	–	946.4 ± 3.9
273.15 K, 12000 kPa, Liquid	933.4 ± 6.8	952.9 ± 3.9
273.15 K, 13000 kPa, Liquid	940.6 ± 6.9	959.1 ± 3.9
273.15 K, 14000 kPa, Liquid	–	965 ± 4
273.15 K, 14002 kPa, Liquid	947.4 ± 6.9	–
273.15 K, 15000 kPa, Liquid	953.8 ± 7	–
273.15 K, 15001 kPa, Liquid	–	970.6 ± 4
273.15 K, 16001 kPa, Liquid	959.9 ± 7	975.9 ± 4
273.15 K, 17000 kPa, Liquid	965.7 ± 7	–
273.15 K, 17002 kPa, Liquid	–	981 ± 4.1
273.15 K, 18001 kPa, Liquid	971.2 ± 7.1	986 ± 4
273.15 K, 19001 kPa, Liquid	976.5 ± 7.1	–
273.15 K, 19003 kPa, Liquid	–	990.8 ± 4
273.15 K, 20000 kPa, Liquid	981.5 ± 7.2	–
273.15 K, 20001 kPa, Liquid	–	995.3 ± 4.1
283.15 K, 1001 kPa, Gas	20.1 ± 0.3	20.9 ± 0.2
283.15 K, 2000 kPa, Gas	42.2 ± 0.4	43.1 ± 0.3
283.15 K, 3001 kPa, Gas	68.4 ± 0.6	69.6 ± 0.4
283.15 K, 4000 kPa, Gas	–	104.2 ± 0.5
283.15 K, 4001 kPa, Gas	101.2 ± 0.8	–
283.15 K, 4701 kPa, Gas	–	144.6 ± 0.8
283.15 K, 5000 kPa, Gas	151.6 ± 1.2	–
283.15 K, 5010 kPa, Gas	153 ± 1.2	–
283.15 K, 5060 kPa, Gas	161.6 ± 1.2	–
283.15 K, 6000 kPa, Liquid	–	827.6 ± 3.9
283.15 K, 7001 kPa, Liquid	–	844.5 ± 3.8
283.15 K, 7301 kPa, Liquid	801.8 ± 6.1	–
283.15 K, 8001 kPa, Liquid	816.3 ± 6.1	859.1 ± 3.7
283.15 K, 9001 kPa, Liquid	833.9 ± 6.2	871.9 ± 3.8
283.15 K, 10001 kPa, Liquid	848.6 ± 6.3	883.2 ± 3.7
283.15 K, 11001 kPa, Liquid	861.6 ± 6.4	893.1 ± 3.7
283.15 K, 12001 kPa, Liquid	873 ± 6.4	902.4 ± 3.7
283.15 K, 13000 kPa, Liquid	–	910.9 ± 3.8
283.15 K, 13002 kPa, Liquid	883.5 ± 6.5	–
283.15 K, 14000 kPa, Liquid	892.6 ± 6.5	–
283.15 K, 14001 kPa, Liquid	–	918.7 ± 3.8
283.15 K, 15001 kPa, Liquid	901.4 ± 6.6	–
283.15 K, 15003 kPa, Liquid	–	926 ± 3.8
283.15 K, 16001 kPa, Liquid	909.4 ± 6.7	932.8 ± 3.8
283.15 K, 17000 kPa, Liquid	–	939.4 ± 3.8
283.15 K, 17001 kPa, Liquid	916.9 ± 6.7	–
283.15 K, 18000 kPa, Liquid	924.1 ± 6.8	945.6 ± 3.9
283.15 K, 19001 kPa, Liquid	930.8 ± 6.8	–
283.15 K, 19002 kPa, Liquid	–	951.6 ± 3.9
283.15 K, 20001 kPa, Liquid	937.2 ± 6.8	–
283.15 K, 20003 kPa, Liquid	–	957.3 ± 3.9
293.15 K, 1000 kPa, Gas	19.9 ± 0.3	–
293.15 K, 1001 kPa, Gas	–	20.4 ± 0.2
293.15 K, 2000 kPa, Gas	–	41 ± 0.3
293.15 K, 2001 kPa, Gas	40.6 ± 0.4	–
293.15 K, 3000 kPa, Gas	64.4 ± 0.5	–
293.15 K, 3001 kPa, Gas	–	65 ± 0.3
293.15 K, 4000 kPa, Gas	92.6 ± 0.7	–
293.15 K, 4001 kPa, Gas	–	94.2 ± 0.4
293.15 K, 5000 kPa, Gas	128.2 ± 1	–
293.15 K, 5001 kPa, Gas	–	132.6 ± 0.6
293.15 K, 6000 kPa, Gas	–	198 ± 0.9
293.15 K, 6001 kPa, Gas	179 ± 2.2	–
293.15 K, 6601 kPa, Gas	253.1 ± 2.5	–
293.15 K, 7151 kPa, Liquid	–	728.4 ± 3.7
293.15 K, 8002 kPa, Liquid	–	765.2 ± 3.5
293.15 K, 8201 kPa, Liquid	680.3 ± 5.2	–
293.15 K, 9001 kPa, Liquid	726.1 ± 5.8	790.8 ± 3.5
293.15 K, 10001 kPa, Liquid	760.3 ± 5.8	811.1 ± 3.5
293.15 K, 11001 kPa, Liquid	785 ± 5.9	827.5 ± 3.5
293.15 K, 12000 kPa, Liquid	–	841.6 ± 3.6
293.15 K, 12002 kPa, Liquid	804.5 ± 6	–
293.15 K, 13000 kPa, Liquid	–	853.5 ± 3.6
293.15 K, 13003 kPa, Liquid	820.2 ± 6.1	–
293.15 K, 14001 kPa, Liquid	–	864.3 ± 3.6
293.15 K, 14002 kPa, Liquid	834.1 ± 6.3	–
293.15 K, 15000 kPa, Liquid	846.1 ± 6.2	–
293.15 K, 15001 kPa, Liquid	–	874.3 ± 3.6
293.15 K, 16001 kPa, Liquid	857.1 ± 6.3	–
293.15 K, 16002 kPa, Liquid	–	883.4 ± 3.6
293.15 K, 17002 kPa, Liquid	867.1 ± 6.4	891.9 ± 3.6
293.15 K, 18000 kPa, Liquid	876.3 ± 6.4	–
293.15 K, 18001 kPa, Liquid	–	899.7 ± 3.7
293.15 K, 19001 kPa, Liquid	884.9 ± 6.5	906.9 ± 3.7
293.15 K, 20001 kPa, Liquid	892.9 ± 6.5	913.8 ± 3.7
